Columns and labels:
[1] = test system: db/db mice; test: Single dose at peak or nadir of clock gene expression, OGTT in db/db mouse model of type II diabetes; assay type: in vivo; conditions: single dose 50 mg/kg PO at peak (ZT0) of Cry1 and Bmal1 expression
Excerpt: Mice were split into two study arms, to be dosed at either the peak or nadir of Cry1 and Bmal1 gene expression. […] Mice dosed at ZT10 were fasted beginning at 8:30 am in the same manner.
(§1) Significance was accepted when p<0.05.

[2] = molecular target: T1, FAD-binding domain of human CRY1 protein (hCRY1) (Homo sapiens, UniProt Q16526); test: Thermal shift binding assay (differential scanning fluorimetry); conditions: purified FADBD 0.5 μg per well, 5% DMSO
T1 construct: Myc-DDK (Myc + FLAG) (C); made in house
T1 sequence (Q16526 1-494): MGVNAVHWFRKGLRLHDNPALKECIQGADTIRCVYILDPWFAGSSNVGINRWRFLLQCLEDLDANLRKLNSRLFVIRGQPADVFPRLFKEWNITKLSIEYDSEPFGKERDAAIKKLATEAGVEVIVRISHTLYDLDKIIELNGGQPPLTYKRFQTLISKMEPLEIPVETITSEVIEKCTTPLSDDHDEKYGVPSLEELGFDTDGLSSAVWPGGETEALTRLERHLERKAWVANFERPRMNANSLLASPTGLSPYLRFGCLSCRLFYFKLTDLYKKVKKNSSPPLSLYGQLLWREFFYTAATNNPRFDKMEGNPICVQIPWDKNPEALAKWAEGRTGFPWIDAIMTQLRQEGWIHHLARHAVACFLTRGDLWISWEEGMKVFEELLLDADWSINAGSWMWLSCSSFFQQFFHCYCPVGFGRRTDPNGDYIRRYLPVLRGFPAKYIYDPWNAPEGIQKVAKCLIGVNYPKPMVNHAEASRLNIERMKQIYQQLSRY
Description: Binding of compounds to the isolated FAD-binding domain of human CRY1 protein (hCRY1) was determined using a differential scanning fluorimetry (‘thermal shift’) assay (Pantoliano et al. (2001) J Biomol Screening 6, 429; Niesen et al. (2007) Nature Protocols 2, 2212). The FAD-binding domain of hCRY1 (amino acid residues 1-494) with a C-terminal Myc-DDK tag (FADBD), was produced by transient transfection of HEK293T cells (Catalog # CRL-3216, American Type Culture Collection) and purified by anti-FLAG affinity chromatography (Catalog # A2220, Sigma-Aldrich). FADBD (0.5 μg per well) was incubated with dilutions of compounds in DMSO (5% DMSO final concentration in reaction) in 17.5 μl Tris-buffered saline (TBS) for 10 minutes on ice, then 2.5 μl of 8× Sypro-Orange Dye (Life Technologies) was added to each well. Triplicate wells were assayed for each compound concentration. The melting temperatures were measured in an ABI7500 quantitative PCR instrument using the melt curve mode with a thermal profile of 2 minutes at 25° C., followed by a ramp rate of 1° C./minute up to 99° C. The melting temperature for each well was determined from the first derivative of the melt curve. The change in melting temperature (ΔTm) was obtained by subtraction of the melting temperature of the FADBD in 5% DMSO alone.

[3] = test system: C57/Bl6J DIO mice; test: Increasing dosages of Compound 72 over 7 days in diet-induced obesity (DIO) mouse model; assay type: in vivo; conditions: 10, 30, 100 mg/kg PO QD 7 days
Excerpt: Male C57/Bl6J DIO mice were obtained from The Jackson Laboratory (Sacramento, Calif.). […] Animals were accustomed to these conditions for at least 2 weeks before experimentation and used at approximately 24 weeks of age.
as §1
Male C57/Bl6J DIO mice were obtained from The Jackson Laboratory (Sacramento, Calif.). […] Animals were accustomed to these conditions for at least 2 weeks before experimentation and used at approximately 26 weeks of age.

change in melting temperature (ΔTm) of hCRY1 FADBD [2]: dose-dependent increase in ΔTm
Compound: O=C1NCCN1CC(O)Cn1c2ccc(F)cc2c2cc(F)ccc21 (stereo not drawn) [Compound 72, 1-(3-(3,6-difluoro-9H-carbazol-9-yl)-2-hydroxypropyl)imidazolidin-2-one]
effect on OGTT measurement [1]: apparent effect
OGTT glucose excursion following a glucose load [3]: reduction in glucose excursion

From US20150284362A1, “CARBAZOLE-CONTAINING AMIDES, CARBAMATES, AND UREAS AS CRYPTOCHROME MODULATORS” (ReSet Therapeutics, Inc., priority 2014, published 2015)
